Experimental data: article PMC6100259, “Insights into Structure-Activity Relationships of 3-Arylhydrazonoindolin-2-One Derivatives for Their Multitarget Activity on β-Amyloid Aggregation and Neurotoxicity” (Molecules : A Journal of Synthetic Chemistry and Natural …, 2018)
Where two headings read alike, the source gives them in different places.

How the values were obtained:
Aβ40 peptide = biological target: T1, Aβ40 peptide (Homo sapiens, UniProt P05067); test: Inhibition of Aβ40 aggregation, ThT fluorescence-based method; assay type: biochemical; conditions: for inhibition at 100 µM: Aβ40, compound 100 µM, ThT fluorescence, read-out: % Inhibition @ 100 µM, Aβ antiaggregating activity; for fold less potent than compound 1 (Aβ40 aggregation): ratio of IC50s vs compound 1; for Aβ aggregation inhibition, result in words: Aβ40, ThT assay
T1 construct: we preferred using Aβ40 peptide
Experimental: In vitro inhibition of Aβ aggregation was assessed through a ThT fluorescence-based method, with the use of 2% 1,1,1,3,3,3-hexafluoroisopropanol (HFIP) as aggregation enhancer. In this medium-throughput assay, we preferred using Aβ40 peptide, being more manageable than Aβ42 and less prone to the formation of preaggregates. Samples of Aβ were co-incubated with test molecules in PBS at 100 µM concentration and the antiaggregating activities were measured after 2 h of incubation at 25 °C. For compounds showing >80% Aβ40 aggregation inhibition, IC50s were determined.
The spectrofluorimetric assays, measuring ThT fluorescence in the presence of Aβ, were done as previously described. Briefly, coincubation samples were prepared as described above (Section 2.2 and Section 2.3) in 96-well black, non-binding microplates (Greiner Bio-One GmbH, Frickenhausen, Germany). Fluorimetric reads were performed in a multiplate reader Infinite M1000 Pro (Tecan, Cernusco sul Naviglio, Italy). Each concentration point was run in triplicate. CD ellipticity measures were performed as detailed in ref. [20], following the increase of the negative band at 215 nm as indicative of β-sheet arrangement.

[1] = Lipophilicity by RP-HPLC (log k'w); assay type: physicochemical; conditions: RP-HPLC C18, MeOH/10 mM ammonium formate buffer pH 4.5, extrapolated to 100% aqueous mobile phase, 25 °C
Experimental: To place on a more quantitative basis the above SAR trends, the lipophilicity of a number of isatin arylhydrazone derivatives was measured by an RP-HPLC method. The polycratic capacity factors (log k’w) were determined (details in the Experimental Section). Lipophilicity descriptors (i.e., 1-octanol–water partition coefficients) were also calculated (CLOGPs) using two computational tools (Bio-Loom software, v. 1.7 and ACDLabs software, release 10.0). The ACDLabs software was used also for calculating descriptors of polarizability and size, namely molar refractivity (CMR) and molar volume (MV). The experimental lipophilicity parameters (log k’w), along with CMR and MV, are reported in Table 6 for 18 compounds achieving finite IC50s (<100 µM) in the Aβ aggregation assay.
The lipophilicity parameters were determined by an RP-HPLC technique. Methanol solutions of the investigated hydrazone compounds (0.5 mg/mL) were injected into an Agilent 1260 infinity HPLC system (Agilent Technologies Italia, Milan), equipped with a diode array detector (DAD), and a Phenomenex Kinetex C18 column (150 × 4.6 mm, 5 μ, Phenomenex Italy s.r.l., Castel Maggiore, BO, Italy), and eluted at different mobile phase compositions (0.05 increments of MeOH volume fraction in 10 mM ammonium formate buffer at pH 4.5, ranging ϕ between 0.85 and 0.30). All RP-HPLC measurements were carried out at 25 ± 1 °C, at a flow rate of 1.0 mL/min, and at 254 nm wavelength.
The logarithm of capacity factors (log k′ = log (tR − t0)/t0) of each compound at different mobile phase compositions have been calculated; tR represents the retention time of the solute and t0 is the column dead time, measured as the elution time of a KNO3 solution in MeOH. For each compound, the log k′ values increased linearly with decreasing MeOH volume fraction. Logarithms of capacity factors extrapolated to the 100% aqueous mobile phase (log k′w) were calculated from the linear regressions on at least five data points (r^2 > 0.975).

[2] = 2% HFIP, PBS, 2 h at 25 °C, mean ± SEM of three independent experiments
[3] = Aβ40 aggregation inhibition, read-out: pIC50, Aβ antiaggregating potency (converted)

T1 sequence (P05067 672-711 limits assumed): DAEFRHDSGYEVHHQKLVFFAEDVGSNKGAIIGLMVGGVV

`COc1ccc2c(c1)/C(=N/Nc1ccc(C#N)cc1)C(=O)N2` [Compound 4, (Z)-4-(2-(5-Methoxy-2-oxoindolin-3-ylidene)hydrazinyl)benzonitrile] showed an inhibition at 100 µM (Aβ40 peptide; [2]) of 16%.

For `COc1ccc2c(c1)/C(=N/Nc1ccc(C(F)(F)F)cc1)C(=O)N2` [Compound 5, (Z)-5-Methoxy-3-(2-(4-(trifluoromethyl)phenyl)hydrazono)indolin-2-one], the inhibition at 100 µM (Aβ40 peptide; [2]) was 57%.

With `COc1ccc2c(c1)/C(=N/Nc1cc(C(F)(F)F)cc(C(F)(F)F)c1)C(=O)N2` [Compound 6, (Z)-3-(2-(3,5-bis(trifluoromethyl)phenyl)hydrazono)-5-methoxyindolin-2-one] the IC50 (Aβ40 peptide) was 9.9 ± 0.8 µM, the “fold less potent than compound 1 (Aβ40 aggregation)” value (Aβ40 peptide) was 25 fold and the “log k'w” value [1] was 6.29.

For `COc1ccc2c(c1)/C(=N/Nc1ccccn1)C(=O)N2` [Compound 7, (Z)-5-Methoxy-3-(2-(pyridin-2-yl)hydrazono)indolin-2-one], the IC50 (Aβ40 peptide) was 90 ± 5 µM and the “log k'w” value [1] was 2.34.

With `COc1ccc2c(c1)/C(=N/Nc1cccc3ccccc13)C(=O)N2` [Compound 8, (Z)-5-Methoxy-3-(2-(naphthalen-1-yl)hydrazono)indolin-2-one] the IC50 (Aβ40 peptide; [3]) was 28.2 µM and the “log k'w” value [1] was 5.15.

Work on `COc1ccc2c(c1)/C(=N/Nc1ccc3ccccc3n1)C(=O)N2` [Compound 9, (Z)-5-Methoxy-3-(2-(quinolin-2-yl)hydrazono)indolin-2-one] yielded an inhibition at 100 µM (Aβ40 peptide; [2]) of 67%.

With `COc1ccc2c(c1)/C(=N/Nc1cccc3cccnc13)C(=O)N2` [Compound 10, (Z)-5-Methoxy-3-(2-(quinolin-8-yl)hydrazono)indolin-2-one] the inhibition at 100 µM (Aβ40 peptide; [2]) was 58%.

For `COc1ccc2c(c1)/C(=N/Nc1ccnc3cc(Cl)ccc13)C(=O)N2` [Compound 11, (Z)-3-(2-(7-Chloroquinolin-4-yl)hydrazono)-5-methoxy-indolin-2-one], the “Aβ aggregation inhibition, result in words” value (“Aβ aggregation inhibition” for short) (Aβ40 peptide) was “very weak inhibitor” and the inhibition at 100 µM (Aβ40 peptide; [2]) was 14%.

For `COc1ccc2c(c1)/C(=N/Nc1nc(CCl)cs1)C(=O)N2` [Compound 13, (Z)-3-(2-(4-(Chloromethyl)thiazol-2-yl)hydrazono)-5-methoxyindolin-2-one], the IC50 (Aβ40 peptide; [3]) was 12.9 µM and the “log k'w” value [1] was 3.95.

For `COc1ccc2c(c1)/C(=N/Nc1nc(C)c(C)s1)C(=O)N2` [Compound 14, (Z)-3-(2-(4,5-Dimethylthiazol-2-yl)hydrazono)-5-methoxyindolin-2-one], the “Aβ aggregation inhibition” value (Aβ40 peptide) was “very weak inhibitor” and the inhibition at 100 µM (Aβ40 peptide; [2]) was 43%.

With `COc1ccc2c(c1)/C(=N/Nc1nc(-c3ccccc3)cs1)C(=O)N2` [Compound 15] the IC50 (Aβ40 peptide; [3]) was 1.2 µM and the “log k'w” value [1] was 5.10.

In the case of `COc1ccc2c(c1)/C(=N/Nc1nc(-c3cccc(O)c3)cs1)C(=O)N2` [Compound 16, (Z)-3-(2-(4-(3-Hydroxyphenyl)thiazol-2-yl)hydrazono)-5-methoxyindolin-2-one], the IC50 (Aβ40 peptide; [3]) is reported as 15.8 µM and the “log k'w” value [1] is reported as 4.58.

For `COc1cccc(-c2csc(N/N=C3\C(=O)Nc4ccc(OC)cc43)n2)c1` [Compound 17, (Z)-5-Methoxy-3-(2-(4-(3-methoxyphenyl)thiazol-2-yl)hydrazono)indolin-2-one], the IC50 (Aβ40 peptide; [3]) was 33.9 µM and the “log k'w” value [1] was 5.29.

In the case of `COc1ccc2c(c1)/C(=N/Nc1nc(-c3cccc(Br)c3)cs1)C(=O)N2` [Compound 18, (Z)-3-(2-(4-(3-Bromophenyl)thiazol-2-yl)hydrazono)-5-methoxyindolin-2-one], the IC50 (Aβ40 peptide; [3]) is reported as 39.8 µM and the “log k'w” value [1] is reported as 5.67.

With `COc1ccc2[nH]cc(/C=N/Nc3ccc(C(C)C)cc3)c2c1` [Compound 19] the IC50 (Aβ40 peptide) was 41 ± 3 µM, the “fold less potent than compound 1 (Aβ40 aggregation)” value (Aβ40 peptide) was 100 fold and the “log k'w” value [1] was 6.42.

In the case of `COc1ccc2c(c1)/C(=N\N=C/c1ccc(C(C)C)cc1)C(=O)N2` [Compound 21, (Z)-3-((E)-(4-Isopropylbenzylidene)hydrazono)-5-methoxyindolin-2-one], the IC50 (Aβ40 peptide; Aβ40, ThT fluorescence, 2% HFIP, PBS, 2 h at 25 °C, mean ± SEM of three independent experiments, read-out: IC50 (µM), Aβ antiaggregating activity) is reported as 6.7 ± 0.2 µM and the “log k'w” value [1] is reported as 4.82.

With `COc1ccc2c(c1)/C(=N\N=C/c1cccc(Cl)c1)C(=O)N2` [Compound 22, (Z)-3-((E)-(3-chlorobenzylidene)hydrazono)-5-methoxyindolin-2-one] the IC50 (Aβ40 peptide; [3]) was 11 µM and the “log k'w” value [1] was 4.21.

For `COc1ccc2c(c1)C(=NNC(=O)c1cccc(Cl)c1)C(=O)N2` [Compound 23, 3-Chloro-N’-(5-methoxy-2-oxoindolin-3-ylidene)benzohydrazide], the “Aβ aggregation inhibition” value (Aβ40 peptide) was “sharp drop of activity” and the inhibition at 100 µM (Aβ40 peptide; [2]) was 31%.

With `COc1ccc2c(c1)/C(=N/N(C)c1ccc(C(C)C)cc1)C(=O)N2C` [Compound 24, (Z)-3-(2-(4-Isopropylphenyl)-2-methylhydrazono)-5-methoxy-1-methylindolin-2-one] the IC50 (Aβ40 peptide; [3]) was 11 µM, the “fold decrease in inhibition potency compared with 26” value (Aβ40 peptide; vs non-methylated compound 26) was “more than 10 fold” and the “log k'w” value [1] was 4.23.

For `COc1ccc2c(c1)/C(=N/Nc1ccc(C(C)C)cc1)C(=O)N2C` [Compound 26, (Z)-3-(2-(4-Isopropylphenyl)hydrazono)-5-methoxy-1-methylindolin-2-one], the IC50 (Aβ40 peptide) was 0.81 ± 0.11 µM and the “log k'w” value [1] was 5.96.

For `COc1ccc2c(c1)/C(=N/Nc1ccc(C(C)C)cc1)C(=O)N2Cc1ccccc1` [Compound 32, (Z)-1-Benzyl-3-(2-(4-isopropylphenyl)hydrazono)-5-methoxyindolin-2-one], the IC50 (Aβ40 peptide) was 0.53 ± 0.1 µM and the “log k'w” value [1] was 7.44.

In the case of `COc1ccc2c(c1)/C(=N/Nc1ccc(C(C)C)cc1)C(=O)N2CCc1ccccc1` [Compound 33, (Z)-3-(2-(4-Isopropylphenyl)hydrazono)-5-methoxy-1-phenethylindolin-2-one], the IC50 (Aβ40 peptide) is reported as 0.61 ± 0.03 µM and the “log k'w” value [1] is reported as 7.24.

For `COc1ccc2c(c1)/C(=N/Nc1ccc(C(C)C)cc1)C(=O)N2CCCc1ccccc1` [Compound 34, (Z)-3-(2-(4-Isopropylphenyl)hydrazono)-5-methoxy-1-(3-phenylpropyl)indolin-2-one], the IC50 (Aβ40 peptide) was 0.83 ± 0.2 µM and the “log k'w” value [1] was 7.87.

`CCCCc1ccc2c(c1)C(=NNc1ccc(C(C)C)cc1)C(=O)N2` [Compound 36, 5-Butyl-3-(2-(4-isopropylphenyl)hydrazono)indolin-2-one] gave an inhibition at 100 µM (Aβ40 peptide; [2]) of 55 ± 1%.

With `CC(C)c1ccc(NN=C2C(=O)Nc3c(Br)cccc32)cc1` [Compound 37, 7-Bromo-3-(2-(4-isopropylphenyl)hydrazono)indolin-2-one] the “Aβ aggregation inhibition” value (Aβ40 peptide) was “complete loss of activity” and the inhibition at 100 µM (Aβ40 peptide; [2]) was less than 5%.

In the case of `CC(C)c1ccc(NN=C2C(=O)Nc3ccc(S(=O)(=O)O)cc32)cc1` [Compound 38, Sodium 3-(2-(4-isopropylphenyl)hydrazono)-2-oxoindolin-5-sulfonate], the inhibition at 100 µM (Aβ40 peptide; [2]) is reported as 35 ± 4%.

Compound `CC(C)c1ccc(N/N=C2\C(=O)Nc3cc4c(cc32)OCO4)cc1` [Compound 39, (Z)-7-(2-(4-isopropylphenyl)hydrazono)-5H-[1,3]dioxolo[4,5-f]indol-6(7H)-one] has an inhibition at 100 µM (Aβ40 peptide; [2]) of 70 ± 4%.
